Experiments:
Format in all cases: cell-based, Human
[1] = tested on: vimentin, MMP2, MMP9, p-EGFR, p-Src, p-STAT3; test: Western blot of EMT-related and signaling proteins in IR-treated A549 cells; conditions: 24 hours
Protocol: In addition, lung cancer cell line A549 (control) and IR-treated lung cancer cell line A549 (IR) were seeded at 1×10^6 in a 60π dish and treated with EGFR inhibitor (EGFR inh), Src inhibitor (Src inh), and STAT3 inhibitor (STAT3 inh). The cells were treated by IR (IR-EGFR inh, IR-Src inh, and IR-STAT3 inh). The cells were harvested 24 hours later, and protein was extracted. Then, Western blot was performed to confirm the expressions of RIP1, vimentin, MMP2, MMP9, p-Src, Src, p-STAT3, STAT3, and β-action, and the results are shown in FIG. 3B (EGFR inhibitor), FIG. 3C (Src inhibitor), and FIG. 3D (STAT3 inhibitor).
(§1) In addition, lung cancer cell line A549 (control) and IR-treated lung cancer cell line A549 (IR) were seeded at 1×10^6 in a 60π dish and treated with necrostatin. The cells were harvested 24 hours later, and protein was extracted. Then, Western blot was performed to confirm the expressions of RIP1, vimentin, MMP2, MMP9, p-EGFR, EGFR, β-action, p-Src, Src, p-STAT3, and STAT3, and the results are shown in FIGS. 4D and 4E.
In addition, the same experiment as the above experiment was performed by treating a commercially available siRNA capable of inhibiting the expression of RIP1, and the results are shown in FIGS. 5A-5D.

[2] = tested on: RIP1; test: Western blot of RIP1 expression in IR-treated A549 cells; conditions: 24 hours
Protocol: In addition, lung cancer cell line A549 (control) and IR-treated lung cancer cell line A549 (IR) were seeded at 1×10^6 in a 60π dish and treated with EGFR inhibitor (EGFR inh), Src inhibitor (Src inh), and STAT3 inhibitor (STAT3 inh). The cells were treated by IR (IR-EGFR inh, IR-Src inh, and IR-STAT3 inh). The cells were harvested 24 hours later, and protein was extracted.
as §1
In addition, lung cancer cell line A549 (control) and IR-treated lung cancer cell line A549 (IR) were seeded with 1×10^6 in a 60π dish and were treated with an NF-κB inhibitor. The cells were harvested 24 hours later, and protein was extracted. Then, Western blot was performed to confirm the expressions of RIP1, vimentin, MMP2, MMP9, p-IκBα, p-P65, p50, and p105.

[3] = tested on: IR-treated lung cancer cell line A549; test: Cell viability of IR-treated lung cancer cells under inhibitor treatment
[4] = tested on: IR-treated lung cancer cell line A549; test: Transwell invasion and migration assay of IR-treated lung cancer cells; conditions: IR (10 Gy)-treated A549, transwell, 24 hours
Protocol: Lung cancer cells (A549) (5×10^5) were seeded in 60 mm dishes and cultured overnight, followed by IR exposure (10 Gy) using a 137 Cs radiation source (Atomic Energy of Canada, Ltd., Mississauga, ON, Canada) to obtain IR-treated lung cancer cell lines (A549 IR (10 Gy)).
In order to analyze the cell invasion of lung cancer cells by IR treatment, Matrigel-coated transwells (Corning N. Y., USA) were used, and in order to analyze cell migration, collagen-coated transwells (Corning, N.Y., USA) were used.
(§2) Lung cancer cell line A549 (control) and IR-treated lung cancer cell line A549 (IR) were placed in an upper chamber by 5×10^4 in a Matrigel-coated transwell, and treated with EGFR, Scr, and STAT3 inhibitors, respectively. Then, 10% FBS medium was put into the lower chamber, and cells passing through the transwell were stained after 24 hours to confirm cell invasion, and the results are shown in FIGS. 3C and 3D.
as §2, with “transwell” for “transwell,”, “necrostatin.” for “EGFR, Scr, and STAT3 inhibitors, respectively.”, “4A” for “3C”, “4B. […]” for “3D.”

[5] = tested on: vimentin, MMP-2/9, E-cadherin; test: Immunoblot analysis of EMT markers with or without IL-Ra under IR irradiation
Protocol: Immunoblot analysis of samples treated with or without IL-Ra (an antagonist of IL-1β) under IR irradiation conditions was performed, and the results are shown in FIG. 8A.

Molecule	activities/expression of vimentin, MMP2, MMP9, p-EGFR, p-Src, p-STAT3 (EMT-related factors) [1]	RIP1 expression [2]	cell viability compared with lung cancer cell line not treated with radiation (control) [3]	cell invasion and cell migration [4]	IR-induced increase of vimentin and MMP-2/9 expressions and decrease of E-cadherin [5]
CN1C(=O)C(Cc2c[nH]c3ccccc23)NC1=S (stereo not drawn) [necrostatin, Necrostatin-1]	decreased activities	decreased expression	almost similar	reduced	–
IL-Ra: an antagonist of IL-1β	–	–	–	almost completely blocked	inhibiting this action
